In US20050209157A1, “Short bioactive peptides and methods for their use” (priority 2001, published 2005):
Read-outs that look alike come from different tables or passages of the source. No end group written: not given here.

Tests used:
[1] = test system: Pseudomonas aeruginosa ATCC 9027; assay: Antimicrobial assay I, MIC by OD measurement; format: cell-based; details: 37° C. for 24 hours, absorbance 620 nm
[2] = test system: Staphylococcus aureus ATCC 6538; assay: Antimicrobial assay I, MIC by OD measurement; format: cell-based; details: 37° C. for 24 hours, absorbance 620 nm
[3] = test system: yeast (Saccharomyces cerevisiae); assay: Antimicrobial assay I, yeast assay in RPMI 1640; format: cell-based; details: RPMI 1640 media
BMKC = assay: Anti-cancer assay, MTT, LD50; format: cell-based; details: BMKC cloned melanoma line, 24 hours with peptide
Excerpt: (§1) Numbers are LD50 values (μg/mL).

H1299 = assay: Anti-cancer assay, MTT, LD50; format: cell-based; details: 24 hours with peptide, lung large cell carcinoma
Excerpt: as §1

HeLaS3 = assay: Anti-cancer assay, MTT, LD50; format: cell-based; details: 24 hours with peptide, cervical carcinoma
Excerpt: as §1

MCF7 = assay: Anti-cancer assay, MTT, LD50; format: cell-based; details: MCF7 breast adenocarcinoma line, MTT, 24 hours with peptide
Excerpt: as §1

PC3 = assay: Anti-cancer assay, MTT, LD50; format: cell-based; details: 24 hours with peptide, prostate adenocarcinoma
Excerpt: as §1

SW480 = assay: Anti-cancer assay, MTT, LD50; format: cell-based; details: SW480 colon adenocarcinoma line, 24 hours with peptide
Excerpt: as §1

in vitro [4] = format: cell-based, human; details: human, human red blood cells, pH 7, hemolytic assay, concentration at 50% hemolysis, 1 hour at 37° C.; read-out: LD50
P. aeruginosa H374 [5] = format: cell-based, Pseudomonas aeruginosa; details: for MIC Cm-comb.: MIC of chloramphenicol with peptide at ¼ MIC; for MIC Nal-comb.: MIC of nalidixic acid with peptide at ¼ MIC; for FIC Index: 0.5 or less = synergy
Method: (§2) The synergistic effects of the inventive peptides with either chloramphenicol or nalidixic acid against efflux mutants of Pseudomonas aeruginosa were investigated. The MIC values were determined for either nalidixic acid or chloramphenicol alone as baselines. Peptides were added at their ¼ MIC concentration, and the concentration of either nalidixic acid or chloramphenicol to arrive at the MIC was determined. […] The fractional inhibitory concentration (FIC) index was used to determine synergy between peptides and antibiotics. Two-fold serial dilutions of antibiotic were tested in the presence of a constant amount of peptide, equal to one quarter of peptide MIC. The FIC index was determined as follows: FIC=0.25+MICantibiotic in combination/MICantibiotic alone. An FIC index of 0.5 or less is considered as synergy.

P. aeruginosa H774 = format: cell-based, Pseudomonas aeruginosa; details: P. aeruginosa H744; nalidixic acid + peptide at ¼ MIC; 0.5 or less = synergy
Method: as §2

P. aeruginosa = format: cell-based, Pseudomonas aeruginosa; details: P. aeruginosa H744; MIC of nalidixic acid with peptide at ¼ MIC
Method: as §2

WI38 = details: MTT, 24 hours with peptide; normal fibroblast line
in vitro [6] = details: human, WI38 normal lung fibroblast cells, 24 hours with peptide
[7] = test system: human red blood cells (RBC); assay: in vitro; format: cell-based; details: hemolytic assay, concentration at 50% hemolysis, 1 hour at 37° C.
E. coli UB1005 = format: cell-based, Escherichia coli; details: mean of three; 16 to 20 hours at 35° C.; in µg/mL
S. typhimurium 14028S = format: cell-based, Salmonella typhimurium; details: mean of three; 16 to 20 hours at 35° C.; in µg/mL
P. aeruginosa H374 [8] = format: cell-based, Pseudomonas aeruginosa; details: mean of three; 16 to 20 hours at 35° C.
[9] = chloramphenicol + peptide at ¼ MIC
[10] = nalidixic acid + peptide at ¼ MIC, FIC=0.25+MIC comb/MIC alone
[11] = LD50 WI38, WI38 normal lung fibroblast line, MTT

Substance | paerug9027 (MIC) [1] | staph6538 (MIC) [2] | yeast (MIC or MFC) [3] | LD50 BMKC (BMKC) | H1299 LD50 (H1299) | HeLaS3 LD50 (HeLaS3) | LD50 MCF7 (MCF7) | PC3 LD50 (PC3) | LD50 SW480 (SW480) | HC50 at 1 h (in vitro [4]) | MIC Cm-comb. (P. aeruginosa H374 [5]) | MIC Nal-comb. (P. aeruginosa H374 [5]) | FIC Index (P. aeruginosa H374 [5]; [9]) | FIC Index (P. aeruginosa H374 [5]; [10]) | FIC Index (P. aeruginosa H774) | MIC Nal-comb. (P. aeruginosa) | WI38 LD50 (WI38) | CC50 at 24 h (in vitro [6]; [11]) | also measured
KTKLFKKFAKKLAKKLKKLAKKL-OH [P80] | 100 µg/mL | 10 µg/mL | 100 µg/mL | 76 µg/mL | 64 µg/mL | 97 µg/mL | 29 µg/mL | 28 µg/mL | 35 µg/mL | 900 µg/mL | 4 µg/mL | 2500 µg/mL | 0.5 | 0.75 | 1.25 | 624 µg/mL | 28 µg/mL | 28 µg/mL | 
GIGKFLHAAKKFAKAFVAEIMNS-NH2 [P300, reference compound] |  |  |  | 130 µg/mL | 60 µg/mL | 125 µg/mL | 22 µg/mL | 45 µg/mL | 60 µg/mL | 250 µg/mL | 16 µg/mL | 312 µg/mL |  |  |  | 156 µg/mL | 52 µg/mL | 52 µg/mL | 
FAKLLAKALKKFL-NH2 [P118] | 100 µg/mL | 10 µg/mL | 100 µg/mL | 135 µg/mL | 74 µg/mL | 87 µg/mL | 70 µg/mL | 330 µg/mL | 115 µg/mL | 700 µg/mL | 16 µg/mL | 2500 µg/mL | 1.25 | 0.75 | 1.25 | 624 µg/mL | 170 µg/mL | 170 µg/mL | 
FAKLLAKALKKL-NH2 [P103] | 25 µg/mL | 10 µg/mL | 100 µg/mL | 75 µg/mL | 150 µg/mL | 70 µg/mL | 46 µg/mL | 330 µg/mL | 90 µg/mL | 650 µg/mL | 8 µg/mL | 625 µg/mL | 0.75 | 0.375 | 1.25 | 624 µg/mL | 26 µg/mL | 26 µg/mL | 
FAKLLAKALKLKL-NH2 [P101] | 25 µg/mL | 10 µg/mL | 100 µg/mL | 160 µg/mL | 340 µg/mL | 170 µg/mL | 250 µg/mL | 730 µg/mL | 170 µg/mL | 550 µg/mL | 16 µg/mL | 5000 µg/mL | 1.25 | 1.25 | 1.25 | 624 µg/mL | 300 µg/mL | 300 µg/mL | 
FAKKLAKKLKKLAKKLAKLAKKL-NH2 [P307, reference compound] |  |  |  | 83 µg/mL | 160 µg/mL | 100 µg/mL | 38 µg/mL | 66 µg/mL | 73 µg/mL |  | 2 µg/mL | 625 µg/mL | 0.375 | 0.375 | 0.5 | 156 µg/mL | 75 µg/mL | 75 µg/mL | LD50 [7]: > (> indicates greater than 1000)
FALALKALKKLKKALKKAL-NH2 [P27] | 10 µg/mL | 10 µg/mL | 25 µg/mL | 44 µg/mL |  |  | 14 µg/mL |  | 26 µg/mL | 125 µg/mL |  |  | 0.75 | 0.25 | 1.25 |  |  | 37 µg/mL | CC50 at 24 h (in vitro [6]; WI38 LD50, MTT, normal fibroblast line): 520 µg/mL
FAKKLAKKLKKLAKKLAK-OH [P71] | 15 µg/mL | 15 µg/mL | 200 µg/mL | 445 µg/mL | 320 µg/mL | 570 µg/mL | 190 µg/mL | 270 µg/mL | 250 µg/mL |  | 8 µg/mL | 2500 µg/mL | 0.75 | 0.75 | 1.25 | 624 µg/mL | 355 µg/mL | 355 µg/mL | E. coli UB1005 MIC (E. coli UB1005): 2; S. typhimurium 14028S MIC (S. typhimurium 14028S): 8; P. aeruginosa H374 MIC (P. aeruginosa H374 [8]): 4 µg/mL
FAKLLAKLAKLKL-NH2 [P66] | 50 µg/mL | 5 µg/mL | 100 µg/mL | 200 µg/mL | 130 µg/mL | 140 µg/mL | 90 µg/mL | 170 µg/mL | 145 µg/mL | 600 µg/mL | 16 µg/mL | 5000 µg/mL | 1.25 | 1.25 | 1.25 | 624 µg/mL | 240 µg/mL | 240 µg/mL | 
KLALKLALKALKAAKLA-NH2 [P150] | 10 µg/mL | 100 µg/mL | > (> indicates greater than 200 μg/mL) | 190 µg/mL | 185 µg/mL | 320 µg/mL | 160 µg/mL | 74 µg/mL | 235 µg/mL | 650 µg/mL | 8 µg/mL | 1250 µg/mL | 0.75 | 0.5 | 0.75 | 312 µg/mL | 125 µg/mL | 125 µg/mL | 
FAKKLAKKLAKLAL-NH2 [P45, FAKKLAKKLAKLAL-NH2] | 100 µg/mL | 5 µg/mL | 100 µg/mL | 160 µg/mL | 330 µg/mL | 160 µg/mL | 260 µg/mL | 170 µg/mL | 180 µg/mL | 700 µg/mL | 16 µg/mL | 2500 µg/mL | 1.25 | 0.75 | 1.25 | 624 µg/mL | 200 µg/mL | 200 µg/mL | 
